Results reported in ChEMBL document CHEMBL5380777, “Efficacy, Mechanism, and Structure-Activity Relationship of 6-Methoxy Benzofuran Derivatives as a Useful Tool for Senile Osteoporosis” (J Med Chem, 2023).
Active and inactive are the calls of the source. No cut-off for these calls is given here.

What was measured:
[1] = organism: Danio rerio; assay: Anti osteoporosis activity in prednisone induced wildtype 3 days post-fertilization AB zebrafish osteoporosis model assessed as increase in bone fluorescence intensity (RVB = 13620 +/- 1692); format: functional
[2] = test system: MC3T3-E1; assay: Induction of ALP activity in mouse MC3T3-E1 cells in osteogenic differentiation culture at 1 uM measured on day 7; format: functional, cell-based; settings: time 7.0 day
[3] = test system: MC3T3-E1; assay: Cytotoxicity against mouse MC3T3-E1 cells; format: toxicity, cell-based
[4] = target: T1, hERG (KCNH2) (Homo sapiens, UniProt Q12809); assay: Inhibition of human ERG stably expressed in CHO cells at 0.3 uM by whole-cell patch clamp method relative to control; format: toxicity, cell-based; settings: CHO cells stably expressing human ERG
[5] = organism: Danio rerio; assay: Anti osteoporosis activity in prednisone induced wildtype 3 days post-fertilization AB zebrafish osteoporosis model assessed as increase in bone fluorescence intensity; format: functional, organism-based; settings: dose 0.078-1.25 µM
[6] = organism: Danio rerio; assay: Anti osteoporosis activity in prednisone induced wildtype 3 days post-fertilization AB zebrafish osteoporosis model assessed as increase in bone mass; format: functional, organism-based; settings: dose 0.078-1.25 µM
[7] = organism: Danio rerio; assay: Anti osteoporosis activity in prednisone induced wildtype 3 days post-fertilization AB zebrafish osteoporosis model assessed as increase in bone mass at 1.25 uM relative to normal control group; format: functional, organism-based
[8] = organism: Danio rerio; assay: Anti osteoporosis activity in prednisone induced wildtype 3 days post-fertilization AB zebrafish osteoporosis model assessed as increase in osteoblast by measuring fluorescence intensity; format: functional, organism-based; settings: dose 0.078-1.25 µM
[9] = target: T2, Cytochrome P450 1A2 (Homo sapiens, UniProt P05177); assay: Inhibition of CYP1A2 (unknown origin) using phenacetin as substrate (reference value: 0.0292 uM); format: ADME
T2 sequence (P05177 whole entry): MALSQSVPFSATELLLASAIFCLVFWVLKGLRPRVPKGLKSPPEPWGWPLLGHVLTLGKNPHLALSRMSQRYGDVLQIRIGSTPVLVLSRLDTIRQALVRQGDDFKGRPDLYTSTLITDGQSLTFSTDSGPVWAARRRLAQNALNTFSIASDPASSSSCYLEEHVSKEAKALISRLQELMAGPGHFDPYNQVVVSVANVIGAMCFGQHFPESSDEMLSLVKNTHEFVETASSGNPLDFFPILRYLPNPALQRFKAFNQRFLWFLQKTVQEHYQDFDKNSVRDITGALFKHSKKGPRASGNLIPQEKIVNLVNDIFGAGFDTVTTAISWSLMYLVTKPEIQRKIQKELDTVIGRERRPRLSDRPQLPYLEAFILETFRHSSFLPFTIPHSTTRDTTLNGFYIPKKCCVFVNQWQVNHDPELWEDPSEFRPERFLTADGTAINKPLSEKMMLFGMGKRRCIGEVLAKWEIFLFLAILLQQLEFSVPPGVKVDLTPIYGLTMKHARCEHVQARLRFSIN

[10] = target: Cytochrome P450 2C19 (Homo sapiens, UniProt P33261); assay: Inhibition of CYP2C19 (unknown origin) using mephenytoin as substrate (reference value: 2.77 uM); format: ADME
[11] = target: Cytochrome P450 2C9 (Homo sapiens, UniProt P11712); assay: Inhibition of CYP2C9 (unknown origin) using tolbutamide as substrate (reference value: 1.9 uM); format: ADME
[12] = target: Cytochrome P450 2D6 (Homo sapiens, UniProt P10635); assay: Inhibition of CYP2D6 (unknown origin) using dextromethorphan as substrate (reference value: 0.0445 uM); format: ADME
[13] = target: T3, Cytochrome P450 3A4 (Homo sapiens, UniProt P08684); assay: Inhibition of CYP3A4 (unknown origin) using midazolam as substrate (reference value: 0.0413 uM); format: ADME
[14] = target: T3, Cytochrome P450 3A4; assay: Inhibition of CYP3A4 (unknown origin) using testosterone as substrate (reference value: 0.0227 uM); format: ADME
[15] = Permeability from apical to basolateral side in human Caco-2 cells assessed as recovery incubated upto 95 mins by LC-MS/MS analysis relative control; format: ADME, cell-based; settings: read-out: Drug recovery
[16] = Apparent permeability from apical to basolateral side in human Caco-2 cells incubated upto 95 mins by LC-MS/MS analysis; format: ADME, cell-based; settings: read-out: permeability
[17] = Efflux ratio of apparent permeability from basolateral side to apical side over apical side to basolateral side in human Caco-2 cells; format: ADME, cell-based
[18] = Permeability from basolateral to apical side in human Caco-2 cells assessed as recovery incubated upto 95 mins by LC-MS/MS analysis relative control; format: ADME, cell-based; settings: read-out: Drug recovery
[19] = Apparent permeability from basolateral to apical side in human Caco-2 cells incubated upto 95 mins by LC-MS/MS analysis; format: ADME, cell-based; settings: read-out: permeability
[20] = target: T1, hERG (KCNH2); assay: Inhibition of human ERG stably expressed in CHO cells at 0.1 uM by whole-cell patch clamp method relative to control; format: toxicity, cell-based; settings: CHO cells stably expressing human ERG
[21] = target: T1, hERG (KCNH2); assay: Inhibition of human ERG stably expressed in CHO cells at 1 uM by whole-cell patch clamp method relative to control; format: toxicity, cell-based; settings: CHO cells stably expressing human ERG
[22] = target: T1, hERG (KCNH2); assay: Inhibition of human ERG stably expressed in CHO cells at 3 uM by whole-cell patch clamp method relative to control; format: toxicity, cell-based; settings: CHO cells stably expressing human ERG
[23] = target: T1, hERG (KCNH2); assay: Inhibition of human ERG stably expressed in CHO cells at 10 uM by whole-cell patch clamp method relative to control; format: toxicity, cell-based; settings: CHO cells stably expressing human ERG
[24] = Cmax in Sprague-Dawley rat by measuring metabolite 6-methoxybenzofuran-2-carboxylic acid at 2 mg/kg, iv; format: ADME, organism-based; design: dose 2 mg/kg, route iv; settings: in vivo
[25] = AUC (0 to t) in Sprague-Dawley rat by measuring metabolite 6-methoxybenzofuran-2-carboxylic acid at 2 mg/kg, iv; format: ADME, organism-based; design: dose 2 mg/kg, route iv; settings: in vivo
[26] = AUC (0 to infinity) in Sprague-Dawley rat by measuring metabolite 6-methoxybenzofuran-2-carboxylic acid at 2 mg/kg, iv; format: ADME, organism-based; design: dose 2 mg/kg, route iv; settings: in vivo
[27] = MRT (0 to infinity) in Sprague-Dawley rat by measuring metabolite 6-methoxybenzofuran-2-carboxylic acid at 2 mg/kg, iv; format: ADME, organism-based; settings: in vivo
[28] = Half life in Sprague-Dawley rat by measuring metabolite 6-methoxybenzofuran-2-carboxylic acid at 2 mg/kg, iv; format: ADME, organism-based; settings: in vivo
[29] = Volume of distribution at steady state in Sprague-Dawley rat by measuring metabolite 6-methoxybenzofuran-2-carboxylic acid at 2 mg/kg, iv; format: ADME, organism-based; settings: in vivo
[30] = Cmax in Sprague-Dawley rat by measuring metabolite 6-methoxybenzofuran-2-carboxylic acid at 10 mg/kg, po; format: ADME, organism-based; design: dose 10 mg/kg, route po; settings: in vivo
[31] = AUC (0 to t) in Sprague-Dawley rat by measuring metabolite 6-methoxybenzofuran-2-carboxylic acid at 10 mg/kg, po; format: ADME, organism-based; design: dose 10 mg/kg, route po; settings: in vivo
[32] = AUC (0 to infinity) in Sprague-Dawley rat by measuring metabolite 6-methoxybenzofuran-2-carboxylic acid at 10 mg/kg, po; format: ADME, organism-based; design: dose 10 mg/kg, route po; settings: in vivo
[33] = MRT (0 to infinity) in Sprague-Dawley rat by measuring metabolite 6-methoxybenzofuran-2-carboxylic acid at 10 mg/kg, po; format: ADME, organism-based; settings: in vivo
[34] = Half life in Sprague-Dawley rat by measuring metabolite 6-methoxybenzofuran-2-carboxylic acid at 10 mg/kg, po; format: ADME, organism-based; settings: in vivo
[35] = Tmax in Sprague-Dawley rat by measuring metabolite 6-methoxybenzofuran-2-carboxylic acid at 10 mg/kg, po; format: ADME, organism-based; settings: in vivo
[36] = Oral bioavailability in Sprague-Dawley rat by measuring metabolite 6-methoxybenzofuran-2-carboxylic acid at 10 mg/kg; format: ADME, organism-based; settings: in vivo

T1 sequence (Q12809 whole entry): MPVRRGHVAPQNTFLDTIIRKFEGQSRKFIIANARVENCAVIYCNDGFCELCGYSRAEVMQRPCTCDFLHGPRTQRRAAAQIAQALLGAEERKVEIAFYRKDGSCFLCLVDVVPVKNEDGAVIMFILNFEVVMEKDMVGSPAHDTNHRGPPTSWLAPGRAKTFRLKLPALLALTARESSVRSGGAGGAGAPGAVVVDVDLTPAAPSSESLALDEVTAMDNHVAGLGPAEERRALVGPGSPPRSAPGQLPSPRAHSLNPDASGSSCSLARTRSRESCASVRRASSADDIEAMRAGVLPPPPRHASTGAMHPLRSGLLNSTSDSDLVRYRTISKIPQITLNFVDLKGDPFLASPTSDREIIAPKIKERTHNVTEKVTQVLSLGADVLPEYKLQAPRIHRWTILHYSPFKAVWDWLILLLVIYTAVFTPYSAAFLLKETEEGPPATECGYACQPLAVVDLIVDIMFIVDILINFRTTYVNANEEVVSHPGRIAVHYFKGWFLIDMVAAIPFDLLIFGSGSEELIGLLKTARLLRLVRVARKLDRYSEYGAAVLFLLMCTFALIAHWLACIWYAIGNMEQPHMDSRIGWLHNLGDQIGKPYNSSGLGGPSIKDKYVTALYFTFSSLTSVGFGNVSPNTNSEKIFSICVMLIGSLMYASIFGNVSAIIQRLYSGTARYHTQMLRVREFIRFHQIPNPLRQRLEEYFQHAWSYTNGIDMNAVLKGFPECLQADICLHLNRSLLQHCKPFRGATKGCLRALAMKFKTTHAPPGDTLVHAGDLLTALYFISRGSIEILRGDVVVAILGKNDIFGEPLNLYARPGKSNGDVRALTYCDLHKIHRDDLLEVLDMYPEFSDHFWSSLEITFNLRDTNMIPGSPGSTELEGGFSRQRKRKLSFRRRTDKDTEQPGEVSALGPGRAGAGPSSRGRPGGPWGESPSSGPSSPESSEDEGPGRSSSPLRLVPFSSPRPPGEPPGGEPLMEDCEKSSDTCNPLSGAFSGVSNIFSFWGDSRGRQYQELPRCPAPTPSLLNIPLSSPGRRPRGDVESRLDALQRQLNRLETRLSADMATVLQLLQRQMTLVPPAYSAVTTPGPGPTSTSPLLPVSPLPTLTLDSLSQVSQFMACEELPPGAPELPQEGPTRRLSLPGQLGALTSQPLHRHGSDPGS
T3 sequence (P08684 whole entry): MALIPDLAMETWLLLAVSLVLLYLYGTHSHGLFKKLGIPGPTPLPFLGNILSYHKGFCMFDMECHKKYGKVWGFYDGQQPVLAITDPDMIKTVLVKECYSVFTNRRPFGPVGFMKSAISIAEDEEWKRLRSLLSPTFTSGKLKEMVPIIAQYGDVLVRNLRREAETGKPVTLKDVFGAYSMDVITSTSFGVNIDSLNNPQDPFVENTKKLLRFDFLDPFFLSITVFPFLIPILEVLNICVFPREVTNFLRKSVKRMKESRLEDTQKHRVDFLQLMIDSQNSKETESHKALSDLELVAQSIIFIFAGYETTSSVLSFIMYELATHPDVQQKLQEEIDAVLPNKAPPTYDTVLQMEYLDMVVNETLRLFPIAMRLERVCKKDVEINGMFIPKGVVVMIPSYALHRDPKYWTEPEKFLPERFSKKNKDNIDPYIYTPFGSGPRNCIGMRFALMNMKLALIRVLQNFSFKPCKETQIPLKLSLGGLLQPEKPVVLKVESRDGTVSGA
Cytochrome P450 2C19, sequence (P33261 whole entry): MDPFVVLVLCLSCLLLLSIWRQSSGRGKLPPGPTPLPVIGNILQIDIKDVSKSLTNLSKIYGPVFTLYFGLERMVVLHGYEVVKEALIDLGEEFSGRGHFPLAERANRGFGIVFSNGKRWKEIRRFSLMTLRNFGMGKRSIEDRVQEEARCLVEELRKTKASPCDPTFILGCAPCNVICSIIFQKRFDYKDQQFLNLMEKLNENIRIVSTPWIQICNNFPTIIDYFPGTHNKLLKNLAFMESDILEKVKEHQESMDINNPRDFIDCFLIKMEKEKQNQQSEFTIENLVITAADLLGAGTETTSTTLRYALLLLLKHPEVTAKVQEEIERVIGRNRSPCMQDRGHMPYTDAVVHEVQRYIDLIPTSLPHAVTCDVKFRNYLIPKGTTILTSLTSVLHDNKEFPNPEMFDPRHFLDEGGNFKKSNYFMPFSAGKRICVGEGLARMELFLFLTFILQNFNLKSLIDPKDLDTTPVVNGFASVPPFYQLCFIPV
Cytochrome P450 2D6, sequence (P10635 whole entry): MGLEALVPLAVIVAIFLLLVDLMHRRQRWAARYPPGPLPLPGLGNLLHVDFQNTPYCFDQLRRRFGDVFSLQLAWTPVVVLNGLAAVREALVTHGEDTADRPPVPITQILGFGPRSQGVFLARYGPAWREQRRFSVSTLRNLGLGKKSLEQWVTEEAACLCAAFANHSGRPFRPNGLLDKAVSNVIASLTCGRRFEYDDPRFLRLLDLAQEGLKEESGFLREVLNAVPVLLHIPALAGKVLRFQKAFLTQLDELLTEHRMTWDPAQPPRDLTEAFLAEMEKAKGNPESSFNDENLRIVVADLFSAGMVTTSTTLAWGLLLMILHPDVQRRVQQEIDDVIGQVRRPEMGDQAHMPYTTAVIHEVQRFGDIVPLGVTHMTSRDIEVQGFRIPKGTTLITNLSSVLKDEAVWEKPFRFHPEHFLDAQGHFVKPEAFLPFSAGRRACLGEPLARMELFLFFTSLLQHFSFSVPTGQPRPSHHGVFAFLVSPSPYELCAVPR
Cytochrome P450 2C9, sequence (P11712 whole entry): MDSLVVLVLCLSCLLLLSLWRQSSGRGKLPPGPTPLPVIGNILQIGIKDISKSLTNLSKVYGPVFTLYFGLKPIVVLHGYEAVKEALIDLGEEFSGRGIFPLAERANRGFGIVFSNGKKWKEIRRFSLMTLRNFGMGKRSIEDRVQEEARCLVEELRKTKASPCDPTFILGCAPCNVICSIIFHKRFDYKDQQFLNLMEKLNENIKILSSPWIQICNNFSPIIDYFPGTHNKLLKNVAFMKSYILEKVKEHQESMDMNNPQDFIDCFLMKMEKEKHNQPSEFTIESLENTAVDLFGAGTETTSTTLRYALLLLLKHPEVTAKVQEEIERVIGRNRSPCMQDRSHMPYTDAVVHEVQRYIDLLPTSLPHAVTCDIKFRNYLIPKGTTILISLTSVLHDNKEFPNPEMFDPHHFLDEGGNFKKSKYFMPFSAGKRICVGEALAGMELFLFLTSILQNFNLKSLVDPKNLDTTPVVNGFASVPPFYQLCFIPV

COc1ccc2cc(C(=O)N[C@@H](C(=O)O)C(C)C)oc2c1
Flu intensity [1]: 30880 | Activity [2]: Active

COc1ccc2cc(C(=O)NCC(=O)NCCN3CCCCC3)oc2c1
Flu intensity [1]: 31141 | Activity [2]: Active

COc1ccc2cc(C(=O)NCCN3CCN(C)CC3)oc2c1
Flu intensity [1]: 25904

COc1ccc2cc(C(=O)NCCN3CCNCC3)oc2c1
Flu intensity [1]: 21709

COc1ccc2cc(C(=O)OCCN3CCCCC3)oc2c1
Flu intensity [1]: 23536

COc1ccc2cc(C(=O)OCCN3CCN(C)CC3)oc2c1
Flu intensity [1]: 23765

COc1ccc2cc(C(=O)NCC(=O)NCCN3CCCC3)oc2c1
Flu intensity [1]: 21953

CCN(CC)CCCNC(=O)c1cc2ccc(OC)cc2o1
Flu intensity [1]: 31394 | Activity [2]: Active

COc1ccc2cc(C(=O)NCC(=O)O)oc2c1
Flu intensity [1]: 22567

COc1ccc2cc(C(=O)N3CCC(C(F)(F)F)CC3)oc2c1
Flu intensity [1]: 16975

COc1ccc2cc(C(=O)OCCN3CCCC3)oc2c1
Flu intensity [1]: 24697

COc1ccc2cc(C(=O)NCCN3CCOCC3)oc2c1
Flu intensity [1]: 26682

COc1ccc2cc(C(=O)NCCCCN(C)C)oc2c1
Flu intensity [1]: 25439

COc1ccc2cc(C(=O)N3CCC(c4ccncc4)CC3)oc2c1
Flu intensity [1]: 30379 | Activity [3]: Toxic

COc1ccc2cc(C(=O)N[C@H](Cc3ccccc3)C(=O)O)oc2c1
Flu intensity [1]: 27422

CCN(CC)CCCCNC(=O)c1cc2ccc(OC)cc2o1
Flu intensity [1]: 21289

COc1ccc2cc(C(=O)NCCN3CCCCC3)oc2c1
Flu intensity [1]: 23225

COc1ccc2cc(C(=O)N[C@H](C)C(=O)O)oc2c1
Flu intensity [1]: 17768

COc1cc(N)c(Cl)cc1C(=O)NC1CCN(CCCOc2ccc(F)cc2)CC1OC (stereo not drawn) [CISAPRIDE]
inhibition at 0.3 µM [4]: 98.2%

COc1ccc2cc(C(=O)N3CCC(O)CC3)oc2c1
Flu intensity [1]: 20648

COc1ccc2cc(C(=O)OCCN3CCOCC3)oc2c1
Flu intensity [1]: 33746 | Activity [2]: Active | Activity [5]: Dose-Dependent Effect | Activity [6]: Dose-Dependent Effect | Activity [7]: Active | Activity [8]: Dose-Dependent Effect | IC50 [9]: 17 µM | IC50 [10]: > 25 µM | IC50 [11]: > 25 µM | IC50 [12]: > 25 µM | IC50 [13]: > 25 µM | IC50 [14]: > 25 µM | recovery at 1.583 h [15]: 22.7% | Papp A→B at 1.583 h [16]: 3.35 ×10⁻⁶ cm/s | efflux ratio [17]: 1.65 | recovery at 1.583 h [18]: 74.3% | Papp B→A at 1.583 h [19]: 5.53 ×10⁻⁶ cm/s | inhibition at 0.1 µM [20]: 4.69% | inhibition at 0.3 µM [4]: 2.36% | inhibition at 1 µM [21]: 6.15% | inhibition at 3 µM [22]: 9.81% | inhibition at 10 µM [23]: 20.6% | Cmax [24]: 3943 ng/mL | AUC [25]: 4557 ng·h/mL | AUC [26]: 4635 ng·h/mL | MRT [27]: 1.25 h | t1/2 [28]: 2.15 h | Vdss [29]: 0.545 L/kg | Cmax [30]: 10380 ng/mL | AUCt [31]: 25724 ng·h/mL | AUCt [32]: 25873 ng·h/mL | MRT [33]: 2.26 h | t1/2 [34]: 3.07 h | Tmax [35]: 0.25 h | F [36]: 113%

COc1ccc2cc(C(=O)NCCN3CCCC3)oc2c1
Flu intensity [1]: 20961

COc1ccc2cc(C(=O)N[C@H](CC(C)C)C(=O)O)oc2c1
Flu intensity [1]: 20236

COc1ccc2cc(C(=O)NCC(=O)OCCN(C)C)oc2c1
Flu intensity [1]: 26758

COc1ccc2cc(C(=O)NCCCN(C)C)oc2c1
Flu intensity [1]: 18114

COc1ccc2cc(C(=O)N3CCN(C)CC3)oc2c1
Flu intensity [1]: 23902

COc1ccc2cc(C(=O)NCC(=O)NCCN(C)C)oc2c1
Flu intensity [1]: 23919

COc1ccc2cc(C(=O)NC3CCC(O)CC3)oc2c1 (stereo not drawn)
Flu intensity [1]: 25882

COc1ccc2cc(C(=O)N3CCC(c4ccc(F)cc4)CC3)oc2c1
Flu intensity [1]: 13963

CC(O)(P(=O)([O-])O)P(=O)([O-])O.[Na+].[Na+] [ETIDRONATE DISODIUM]
Flu intensity [1]: 23897
